What was measured:
Assay type in all cases: in vivo
SETVI Setaria viridis [1] = assay: Pre-emergence herbicidal action against harmful plants; details: 320 g a.i./ha, visual scoring 3-4 weeks after treatment, Comparative Table 6
Text: (§1) Seeds or rhizome pieces of mono- and dicotyledonous harmful plants are placed in sandy loam in pots of a diameter of 9 to 13 cm and covered with soil. The herbicides, formulated as emulsifiable concentrates or dusts, are applied to the surface of the covering soil in the form of aqueous dispersions or suspensions or emulsions at an application rate of 300 to 800 l of water/ha (converted), at various dosages. For further cultivation of the plants, the pots are then kept in a greenhouse under optimum conditions. The visual scoring of the damage to the harmful plants is carried out 3-4 weeks after the treatment. As shown by the results of these comparative tables, the selected compounds according to the invention have better herbicidal activity against a broad spectrum of economically important mono- and dicotyledonous harmful plants than the compounds disclosed in the prior art.

LOLMU Lolium multiflorum [2] = assay: as above; details: visual scoring 3-4 weeks after treatment
Text: as §1

[3] = tested on: AMARE Amaranthus retroflexus; assay: as above; details: visual scoring 3-4 weeks after treatment
Text: as §1

AVESA [4] = assay: as above; details: 320 g a.i./ha, visual scoring 3-4 weeks after treatment, Comparative Table 6
Text: as §1

SETVI Setaria viridis [5] = assay: Post-emergence herbicidal action against harmful plants; details: scored after 3 to 4 weeks
Experimental: (§2) Seeds of mono- and dicotyledonous harmful plants are placed in sandy loam in cardboard pots, covered with soil and grown in the greenhouse under good growth conditions. Two to three weeks after sowing, the test plants are treated at the three-leaf stage. The compounds according to the invention, which are formulated as wettable powders or as emulsion concentrates, are sprayed at an application rate of 600 to 800 l of water/ha (converted) in a dosage stated in tables 1 to 5 onto the surface of the green plant parts. After the test plants have been left to stand in the greenhouse for 3 to 4 weeks under optimum growth conditions, the action of the compounds according to the invention is scored in comparison to compounds disclosed in the prior art. As shown by the results of these comparison tables, the selected compounds according to the invention have better herbicidal activity against a broad spectrum of economically important mono- and dicotyledonous harmful plants than the compounds disclosed in the prior art.

LOLMU Lolium multiflorum [6] = assay: as above; details: scored after 3 to 4 weeks
Experimental: as §2

[7] = tested on: ECHCG Echinochloa crus galli; assay: as above; details: scored after 3 to 4 weeks
Experimental: as §2

AVESA [8] = assay: as above; details: Port-emergence, scored after 3 to 4 weeks, Comparative Table 7
Experimental: as §2

[9] = tested on: ABUTH Abutilon theophrasti; assay: Pre-emergence herbicidal action against harmful plants; details: 80 g a.i./ha, visual scoring 3-4 weeks after treatment, Comparative Table 1
Text: as §1

[10] = tested on: ECHCG Echinochloa crus galli; assay: as above; details: 80 g a.i./ha, visual scoring 3-4 weeks after treatment, Comparative Table 1
Text: as §1

STEME Stellaria media [11] = assay: as above; details: 80 g a.i./ha, visual scoring 3-4 weeks after treatment, Comparative Table 2
Text: as §1

VERPE Veronica persica [12] = assay: as above; details: 80 g a.i./ha, visual scoring 3-4 weeks after treatment
Text: as §1

[13] = tested on: AMARE Amaranthus retroflexus; assay: Post-emergence herbicidal action against harmful plants; details: Port-emergence, 80 g a.i./ha, scored after 3 to 4 weeks; Comparative Table 4
Experimental: as §2

[14] = tested on: ABUTH Abutilon theophrasti; assay: as above; details: Port-emergence, 80 g a.i./ha, scored after 3 to 4 weeks; Comparative Table 4
Experimental: as §2

MATIN Matricaria inodora = assay: as above; details: 80 g a.i./ha, scored after 3 to 4 weeks
Experimental: as §2

VIOTR Viola tricolor [15] = assay: as above; details: 80 g a.i./ha, scored after 3 to 4 weeks
Experimental: as §2

STEME Stellaria media [16] = assay: as above; details: Port-emergence, 80 g a.i./ha, scored after 3 to 4 weeks; Comparative Table 5
Experimental: as §2

VERPE Veronica persica [17] = assay: as above; details: 80 g a.i./ha, scored after 3 to 4 weeks
Experimental: as §2

[18] = tested on: POLCO Polygonum convolvulus; assay: as above; details: Port-emergence, 80 g a.i./ha, scored after 3 to 4 weeks; Comparative Table 5
Experimental: as §2

GALAP Galium aparine = assay: Pre-emergence herbicidal action against harmful plants; details: 80 g a.i./ha, visual scoring 3-4 weeks after treatment, Comparative Table 8
Text: as §1

[19] = tested on: POLCO Polygonum convolvulus; assay: as above; details: 80 g a.i./ha, visual scoring 3-4 weeks after treatment, Comparative Table 8
Text: as §1

VIOTR Viola tricolor [20] = assay: as above; details: 80 g a.i./ha, visual scoring 3-4 weeks after treatment, Comparative Table 9
Text: as §1

[21] = tested on: XANST Xanthium strumarium; assay: as above; details: 80 g a.i./ha, visual scoring 3-4 weeks after treatment, Comparative Table 9
Text: as §1

[22] = tested on: DIGSA Digitaria sanguinalis; assay: Post-emergence herbicidal action against harmful plants; details: 80 g a.i./ha, scored after 3 to 4 weeks, Comparative Table 10
Experimental: as §2

[23] = tested on: XANST Xanthium strumarium; assay: as above; details: 80 g a.i./ha, scored after 3 to 4 weeks, Comparative Table 11
Experimental: as §2

[24] = 320 g a.i./ha, Comparative Table 6
[25] = Port-emergence, 320 g a.i./ha, Comparative Table 7
[26] = 80 g a.i./ha, Comparative Table 1
[27] = 80 g a.i./ha, Comparative Table 2
[28] = Post-emergence, 80 g a.i./ha, Comparative Table 3
[29] = Port-emergence, Comparative Table 4
[30] = Port-emergence, Comparative Table 5
[31] = Port-emergence, 80 g a.i./ha, Comparative Table 7
[32] = 80 g a.i./ha, Comparative Table 8
[33] = Post-emergence, 80 g a.i./ha, Comparative Table 10
[34] = Post-emergence, Comparative Table 11

## Cc1c(C(=O)c2cnn(C)c2O)ccc(C(F)(F)F)c1F
SETVI Setaria viridis [1]
  Activity against harmful plants SETVI: 20%
LOLMU Lolium multiflorum [2]; [24]
  Activity against harmful plants LOLMU: 20%
[3]; [24]
  Activity against harmful plants AMARE: 50%
AVESA [4]
  Activity against harmful plants AVESA: 20%

## Cc1c(C(=O)c2cnn(C)c2O)ccc(C(F)(F)F)c1Cl
SETVI Setaria viridis [5]; [25]
  Activity against harmful plants SETVI: 30%
LOLMU Lolium multiflorum [6]; [25]
  Activity against harmful plants LOLMU: 20%
[7]; [25]
  Activity against harmful plants ECHCG: 0%
AVESA [8]; 320 g a.i./ha
  Activity against harmful plants AVESA: 20%

## CCn1ncc(C(=O)c2ccc(C(F)(F)F)c(S(C)(=O)=O)c2C)c1O [drawing 15]
LOLMU Lolium multiflorum [2]; [26]
  Activity against harmful plants LOLMU: 70%
[9]
  Activity against harmful plants ABUTH: 100%
[10]
  Activity against harmful plants ECHCG: 100%

## CCn1ncc(C(=O)c2ccc(C(F)(F)F)c(F)c2C)c1O [drawing 16]
LOLMU Lolium multiflorum [2]; [26]
  Activity against harmful plants LOLMU: 0%
[9]
  Activity against harmful plants ABUTH: 0%
[10]
  Activity against harmful plants ECHCG: 30%

## CCn1ncc(C(=O)c2ccc(C(F)(F)F)c(S(C)(=O)=O)c2C)c1O [drawing 17]
STEME Stellaria media [11]
  Activity against harmful plants STEME: 90%
[3]; [27]
  Activity against harmful plants AMARE: 90%
VERPE Veronica persica [12]; Comparative Table 2
  Activity against harmful plants VERPE: 90%

## CCn1ncc(C(=O)c2ccc(C(F)(F)F)c(F)c2C)c1O [drawing 18]
STEME Stellaria media [11]
  Activity against harmful plants STEME: 40%
[3]; [27]
  Activity against harmful plants AMARE: 0%
VERPE Veronica persica [12]; Comparative Table 2
  Activity against harmful plants VERPE: 0%

## CCn1ncc(C(=O)c2ccc(C(F)(F)F)c(S(C)(=O)=O)c2C)c1O [drawing 19]
SETVI Setaria viridis [5]; [28]
  Activity against harmful plants SETVI: 100%
LOLMU Lolium multiflorum [6]; [28]
  Activity against harmful plants LOLMU: 60%
[7]; [28]
  Activity against harmful plants ECHCG: 90%

## CCn1ncc(C(=O)c2ccc(C(F)(F)F)c(F)c2C)c1O [drawing 20]
SETVI Setaria viridis [5]; [28]
  Activity against harmful plants SETVI: 0%
LOLMU Lolium multiflorum [6]; [28]
  Activity against harmful plants LOLMU: 0%
[7]; [28]
  Activity against harmful plants ECHCG: 0%

## CCn1ncc(C(=O)c2ccc(C(F)(F)F)c(S(C)(=O)=O)c2C)c1O [drawing 21]
[13]
  Activity against harmful plants AMARE: 100%
[14]
  Activity against harmful plants ABUTH: 90%
MATIN Matricaria inodora; [29]
  Activity against harmful plants MATIN: 90%

## CCn1ncc(C(=O)c2ccc(C(F)(F)F)c(F)c2C)c1O [drawing 22]
[13]
  Activity against harmful plants AMARE: 0%
[14]
  Activity against harmful plants ABUTH: 80%
MATIN Matricaria inodora; [29]
  Activity against harmful plants MATIN: 0%

## CCn1ncc(C(=O)c2ccc(C(F)(F)F)c(S(C)(=O)=O)c2C)c1O [drawing 23]
VIOTR Viola tricolor [15]; [30]
  Activity against harmful plants VIOTR: 80%
STEME Stellaria media [16]
  Activity against harmful plants STEME: 90%
VERPE Veronica persica [17]; [30]
  Activity against harmful plants VERPE: 90%
[18]
  Activity against harmful plants POLCO: 100%

## CCn1ncc(C(=O)c2ccc(C(F)(F)F)c(F)c2C)c1O [drawing 24]
VIOTR Viola tricolor [15]; [30]
  Activity against harmful plants VIOTR: 0%
STEME Stellaria media [16]
  Activity against harmful plants STEME: 0%
VERPE Veronica persica [17]; [30]
  Activity against harmful plants VERPE: 0%
[18]
  Activity against harmful plants POLCO: 60%

## Cc1c(C(=O)c2cnn(C)c2O)ccc(C(F)(F)F)c1S(C)(=O)=O [drawing 25]
SETVI Setaria viridis [1]
  Activity against harmful plants SETVI: 100%
LOLMU Lolium multiflorum [2]; [24]
  Activity against harmful plants LOLMU: 90%
[3]; [24]
  Activity against harmful plants AMARE: 100%
AVESA [4]
  Activity against harmful plants AVESA: 90%

## Cc1c(C(=O)c2cnn(C)c2O)ccc(C(F)(F)F)c1S(C)(=O)=O [drawing 27]
SETVI Setaria viridis [5]; [31]
  Activity against harmful plants SETVI: 90%
LOLMU Lolium multiflorum [6]; [31]
  Activity against harmful plants LOLMU: 80%
[7]; [31]
  Activity against harmful plants ECHCG: 90%
AVESA [8]; 80 g a.i./ha
  Activity against harmful plants AVESA: 70%

## CCn1ncc(C(=O)c2ccc(C(F)(F)F)c(S(C)(=O)=O)c2C)c1O [drawing 29]
LOLMU Lolium multiflorum [2]; [32]
  Activity against harmful plants LOLMU: 70%
GALAP Galium aparine
  Activity against harmful plants GALAP: 80%
[19]
  Activity against harmful plants POLCO: 50%

## CCn1ncc(C(=O)c2ccc(S(C)(=O)=O)c(S(C)(=O)=O)c2C)c1O [drawing 30]
LOLMU Lolium multiflorum [2]; [32]
  Activity against harmful plants LOLMU: 0%
GALAP Galium aparine
  Activity against harmful plants GALAP: 60%
[19]
  Activity against harmful plants POLCO: 30%

## CCn1ncc(C(=O)c2ccc(C(F)(F)F)c(S(C)(=O)=O)c2C)c1O [drawing 31]
VIOTR Viola tricolor [20]
  Activity against harmful plants VIOTR: 90%
VERPE Veronica persica [12]; Comparative Table 9
  Activity against harmful plants VERPE: 90%
[21]
  Activity against harmful plants XANST: 100%

## CCn1ncc(C(=O)c2ccc(S(C)(=O)=O)c(S(C)(=O)=O)c2C)c1O [drawing 32]
VIOTR Viola tricolor [20]
  Activity against harmful plants VIOTR: 20%
VERPE Veronica persica [12]; Comparative Table 9
  Activity against harmful plants VERPE: 80%
[21]
  Activity against harmful plants XANST: 40%

## CCn1ncc(C(=O)c2ccc(C(F)(F)F)c(S(C)(=O)=O)c2C)c1O [drawing 33]
SETVI Setaria viridis [5]; [33]
  Activity against harmful plants SETVI: 100%
LOLMU Lolium multiflorum [6]; [33]
  Activity against harmful plants LOLMU: 60%
[22]
  Activity against harmful plants DIGSA: 100%
[7]; [33]
  Activity against harmful plants ECHCG: 90%

## CCn1ncc(C(=O)c2ccc(S(C)(=O)=O)c(S(C)(=O)=O)c2C)c1O [drawing 34]
SETVI Setaria viridis [5]; [33]
  Activity against harmful plants SETVI: 80%
LOLMU Lolium multiflorum [6]; [33]
  Activity against harmful plants LOLMU: 20%
[22]
  Activity against harmful plants DIGSA: 80%
[7]; [33]
  Activity against harmful plants ECHCG: 80%

## CCn1ncc(C(=O)c2ccc(C(F)(F)F)c(S(C)(=O)=O)c2C)c1O [drawing 35]
VIOTR Viola tricolor [15]; [34]
  Activity against harmful plants VIOTR: 80%
VERPE Veronica persica [17]; [34]
  Activity against harmful plants VERPE: 90%
[23]
  Activity against harmful plants XANST: 100%
MATIN Matricaria inodora; [34]
  Activity against harmful plants MATIN: 90%

## CCn1ncc(C(=O)c2ccc(S(C)(=O)=O)c(S(C)(=O)=O)c2C)c1O [drawing 36]
VIOTR Viola tricolor [15]; [34]
  Activity against harmful plants VIOTR: 50%
VERPE Veronica persica [17]; [34]
  Activity against harmful plants VERPE: 80%
[23]
  Activity against harmful plants XANST: 70%
MATIN Matricaria inodora; [34]
  Activity against harmful plants MATIN: 40%
